Data set [1] can be described thus: Solubility test in hexane (Table 1). The format is physicochemical.
Data set [2] can be described thus: Solubility of the isolated product in organic solvents, as noted in the synthesis examples. The format is physicochemical.
Data set [3] in a line: Catalytic activity test: gel time in polymerizing dicyclopentadiene under RIM conditions. Particulars: 4°C temperature rise from the initial temperature of 40°C; A and B components mixed in adiabatic chamber; Component B 0.66 wt. percent polyoxometalate catalyst. How it is done: The ligated polyoxomolybdate produced in Examples 1-4 were tested for their activity in polymerizing dicyclopentadiene under conditions of a RIM procedure.
Reaction injection molding components were prepared with the following recipes: Component A contained 88.2 wt. percent dicyclopentadiene/7.17 wt. percent cyclopentadiene trimer/3.52 wt. percent butadiene elastomer/0.5 wt. percent diethylaluminumchloride/0.25 wt. percent 2,4-dimethyl-3-pentanol/0.09 wt. percent n-propyl alcohol/0.18 wt. percent silicon tetrachloride.
Component B contained 88.63 wt. percent dicyclopentadiene/7.19 wt. percent cyclopentadiene trimer 3.52 wt. percent butadiene elastomer/0.66 wt. percent polyoxometalate catalyst.
The A and B components were reactivity tested using two pistons and a static mixer. The A and B components were first drawn into their respective piston of the reactivity tester. The components were then heated to 40°C inside the pistons. Next, the contents of the A and B component pistons of the reactivity tester were emptied through a static mixer into a disposable adiabatic chamber.
The temperature increase during the polymerization in the adiabatic chamber was monitored. The gel time is defined as a 4°C temperature rise from the initial temperature of 40°C.

For the substance “[(C8H17)3NCH3]4{(C6H5P)2Mo5O21} [Example 5]”, the Hexane soluble in data set [1] (numeric bound) is given as under 5%. For the same substance, in data set [2], the soluble in cyclohexane entry is “soluble” and the soluble in dicyclopentadiene result is recorded as “soluble”.
In the case of “[(C12H25)3NH4{(C6H5P)2Mo5O21} [Example 34]”, in data set [2], the soluble in cyclohexane result is recorded as “soluble” and the soluble in hexane result is on record as “soluble”.
As to “[(C12H25)3NH]2{(C6H4O2)2MoO2} [Example 32]”, the soluble in cyclohexane result in data set [2] is recorded as “soluble”.
With “[(C12H25)3NH]2{(H3NC6H4P)2Mo5O21} [Example 16]”, in data set [1] (result in words), the Hexane soluble entry is reported as “soluble”. For the same substance, in data set [2], the soluble in cyclohexane result was “soluble” and the soluble in hexane entry is “soluble”.
Regarding “[(C12H25)3NH]2{[(OOC)CH2CH(O)(COO)]2Mo4O12} [Example 30]”, in data set [2], the soluble in cyclohexane entry is reported as “soluble” and the soluble in hexane entry is “soluble”.
Regarding “[(C12H25)3NH]2{[Br2C6H2(O)(COO)]2MoO2} [Example 29]”, in data set [2], the soluble in cyclohexane result is reported as “soluble” and the soluble in hexane entry is reported as “soluble”.
As for “[(C12H25)3NH]2{[C6H4(O)(COO)]2Mo2O5} [Example 24]”, in data set [2], the soluble in cyclohexane result is on record as “soluble” and the soluble in hexane entry was “soluble”.
As for “[(C12H25)3NH]2{[C10H6(O)(COO)]2Mo2O5} [Example 27]”, in data set [2], the soluble in cyclohexane entry is recorded as “soluble” and the soluble in hexane entry is reported as “soluble”.
For the substance “[(C12H25)3NH]2{[CH3C6H3(O)(COO)]2Mo2O5} [Example 28]”, in data set [2], the soluble in cyclohexane result is recorded as “soluble” and the soluble in hexane result was “soluble”.
Take “[(C12H25)3NH]2{[CH3CH(O)(COO)]2Mo2O5} [Example 23]”: in data set [2], the soluble in cyclohexane result was “soluble” and the soluble in hexane result is reported as “soluble”.
With “[(C12H25)3NH]4{(C4H9P)2Mo5O21} [Example 17]”, in data set [1] (result in words), the Hexane soluble entry is recorded as “soluble”. In data set [2], the soluble in cyclohexane entry is listed as “readily soluble” and the “soluble in hot hexane” value is “readily soluble”.
“[(C12H25)3NH]4{(C6H5OP)2Mo5O21} [Example 12]”: the Hexane soluble in data set [1] (numeric bound) was over 99%. In data set [2], the soluble in dicyclopentadiene entry is listed as “readily soluble” and the soluble in hexane result is “readily soluble”.
In turn, “[(C12H25)3NH]4{(C6H5P)2Mo5O21} [Example 1]” yielded a gel time in data set [3] of 4.4 min.
As to “[(C12H25)3NH]4{(C6H5P)2Mo5O21} [Example 2]”, the Hexane soluble in data set [1] (numeric bound) is over 99%. The substance also displayed a gel time in data set [3] of 3.7 min. In data set [2], the soluble in dicyclopentadiene entry is on record as “readily soluble” and the soluble in hexane result is “readily soluble”.
On to “[(C12H25)3NH]4{(C6H5P)2Mo5O21} [Example 10]”, for which, in data set [2], the soluble in dicyclopentadiene entry is given as “readily soluble” and the soluble in hexane entry is recorded as “readily soluble”.
Regarding “[(C12H25)3NH]4{(C6H5P)2Mo5O21} [Example 19]”, in data set [2], the soluble in dicyclopentadiene result is “readily soluble” and the soluble in hexane result is recorded as “readily soluble”.
For the substance “[(C12H25)3NH]4{(C6H5P)2Mo5O21} [Example 33]”, in data set [2], the soluble in cyclohexane result is given as “soluble” and the soluble in hexane entry is recorded as “soluble”.
Regarding “[(C12H25)3NH]4{(C6H5P)2Mo5O21} [Example 35]”, in data set [2], the soluble in cyclohexane entry is recorded as “soluble” and the soluble in hexane result is recorded as “soluble”.
Substance “[(C12H25)3NH]4{(C6H5P)2W5O21} [Example 9]” gave a Hexane soluble in data set [1] (numeric bound) of over 99%. Besides, in data set [2], the soluble in dicyclopentadiene entry is listed as “soluble” and the soluble in hexane entry is on record as “soluble”.
On to “[(C12H25)3NH]4{(CH3)3CP)2Mo5O21} [Example 8]”, for which the Hexane soluble entry in data set [1] (result in words) is given as “soluble”. Also, the “soluble in cyclohexane/hexane mixture” value in data set [2] (cyclohexane/hexane mixture) is on record as “soluble”.
Turning to “[(C12H25)3NH]4{(CH3P)2Mo5O21} [Example 15]”, the Hexane soluble result in data set [1] (result in words) is reported as “soluble”. Besides, in data set [2], the soluble in cyclohexane entry is given as “soluble” and the “soluble in hot hexane” value is recorded as “soluble”.
As to “[(C12H25)3NH]4{(HOP)2Mo5O21} [Example 38]”, in data set [2], the soluble in cyclohexane result is “soluble” and the soluble in hexane result is reported as “soluble”.
For “[(C12H25)3NH]4{(HP)2Mo5O21} [Example 20]”, the soluble in cyclohexane entry in data set [2] is given as “soluble”.
In data set [1] (numeric bound), “[(C12H25)3NH]4{[(HOCH2)2CHOP)]2Mo5O21} [Example 13]” gave a Hexane soluble of over 99%. Besides, in data set [2], the soluble in dicyclopentadiene result is recorded as “readily soluble” and the soluble in hexane result was “readily soluble”.
Turning to “[(C12H25)3NH]4{[C6H4(O)(COO)]2Mo4O12} [Example 26]”, in data set [2], the soluble in cyclohexane entry is reported as “soluble” and the soluble in hexane result is “soluble”.
Consider “[(C12H25)3NH]4{[CH3CH(O)(COO)]2Mo4O12} [Example 22]”, for which, in data set [2], the soluble in cyclohexane entry is “soluble” and the soluble in hexane result is “soluble”.
In data set [1] (numeric bound), “[(C18H37)0.65C16H33)0.35(C14H29)0.05NH]4{(C6H5P)2Mo5O21} [Example 7]” gave a Hexane soluble of over 99%. In data set [2], the soluble in cyclohexane result is listed as “soluble”, the soluble in dicyclopentadiene result is on record as “soluble” and the soluble in hexane result is given as “soluble”.
“[(i-C8H17)3NH]4{(C6H5P)2Mo5O21} [Example 4]” gave a Hexane soluble in data set [1] (numeric bound) of under 5%. Moreover, the gel time in data set [3] was found to be 2.5 min. For the same substance, in data set [2], the soluble in cyclohexane result is on record as “readily soluble” and the “soluble in hot hexane” value is “readily soluble”.
“[(i-C10H21)3NH]4{(C6H5P)2Mo3O21} [Example 3]”: the Hexane soluble in data set [1] (numeric bound) is listed as over 99%. This substance also yielded a gel time in data set [3] of 3.4 min. In addition, in data set [2], the soluble in dicyclopentadiene result is “readily soluble” and the soluble in hexane entry is on record as “readily soluble”.
Turning to “[C12H25NH]4{[HOC(O)CH2CH2P]2Mo5O21]} [Example 14]”, in data set [1] (result in words), the Hexane soluble result is “soluble”.

Source of the values: EP0755938B1, “Ligated polyoxometalates and method for their synthesis” (THE B.F. GOODRICH COMPANY, priority 1995, dated 1997).
